# Patent publication US20070249620A1, “Urea Derivative” (priority 2004, published 2007)
# Assays:
# [1] = biological target: T1, mouse DGAT1 (Mus musculus, UniProt Q9Z2A7); assay: DGAT1 inhibitory effect test (microsome fraction, [14C]-oleoyl-CoA, triglyceride radioactivity by TLC); type: biochemical; conditions: 0.5 h; concentration of the test compound 0.1 μg/ml; mouse DGAT1 microsomes, 23° C., 30 minutes; read-out: Inhibitory ratio
# T1 construct: made in house; host or cells: insect cells (High Five, Sf9, Sf21, etc.), baculovirus expression system (Invitrogen)
# T1 sequence (Q9Z2A7 1-498): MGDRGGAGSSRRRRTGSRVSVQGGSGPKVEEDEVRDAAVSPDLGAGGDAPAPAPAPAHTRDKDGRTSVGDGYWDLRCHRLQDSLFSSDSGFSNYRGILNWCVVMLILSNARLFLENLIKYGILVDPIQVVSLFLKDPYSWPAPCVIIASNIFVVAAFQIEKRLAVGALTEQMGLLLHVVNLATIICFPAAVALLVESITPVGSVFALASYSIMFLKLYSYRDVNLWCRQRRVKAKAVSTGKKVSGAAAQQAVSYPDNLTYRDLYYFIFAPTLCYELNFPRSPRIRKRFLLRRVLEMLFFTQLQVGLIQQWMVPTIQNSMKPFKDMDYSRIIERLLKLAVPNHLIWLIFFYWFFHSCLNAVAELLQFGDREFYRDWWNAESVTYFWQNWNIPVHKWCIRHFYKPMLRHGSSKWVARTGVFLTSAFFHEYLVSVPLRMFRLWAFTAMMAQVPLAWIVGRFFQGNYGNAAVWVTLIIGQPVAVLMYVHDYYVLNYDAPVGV
# Outline: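 Inhibition was scored from radiolabelled triglyceride separated by TLC, relative to vehicle and net of a 0-min background. The reaction ran for 30 min at room temperature (23 °C) in Tris-HCl pH 8.0 with MgCl2, BSA and Triton X-100. Substrates were 30 μM [14C]-oleoyl-CoA and 0.5 mM dioleoylglycerol, with mouse DGAT1 microsomes from baculovirus-infected insect cells as enzyme.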
SMILES,inhibition at 0.1 µg/mL [1] [%],melting point [°C]
"COc1ccc(C)cc1NC(=O)Nc1ccc(C2CCN(C(=O)Nc3c(C)cccc3Cl)CC2)cc1 [Example 228, 4-{4-[3-(2-methoxy-5-methyl-phenyl)-ureido]-phenyl}-piperidine-1-carboxylic acid (2-chloro-6-methyl-phenyl)-amide]",≥ 50,234 to 236
"O=C(Nc1ccc(C2=CCN(C(=O)Nc3ccc(OCCO)cc3C(F)(F)F)CC2)cc1)Nc1ccccc1F [Example 229, 4-{4-[3-(2-fluoro-phenyl)-ureido]-phenyl}-3,6-dihydro-2H-pyridine-1-carboxylic acid [4-(2-hydroxy-ethoxy)-2-trifluoromethyl-phenyl]-amide]",≥ 50,110 to 112
"COc1ccc(C)cc1NC(=O)Nc1ccc(C2=CCN(C(=O)Nc3ccc(OCCO)cc3C(F)(F)F)CC2)cc1 [Example 230, 4-{4-[3-(2-methoxy-5-methyl-phenyl)-ureido]-phenyl}-3,6-dihydro-2H-pyridine-1-carboxylic acid [4-(2-hydroxy-ethoxy)-2-trifluoromethyl-phenyl]-amide]",≥ 50,150 to 153
"COc1ccc(C)cc1NC(=O)Nc1ccc(N2CCN(C(=O)Nc3cc(OCCO)ccc3Cl)CC2)cc1 [Example 231, 4-{4-[3-(2-methoxy-5-methyl-phenyl)-ureido]-phenyl}-piperazine-1-carboxylic acid [2-chloro-5-(2-hydroxy-ethoxy)-phenyl]-amide]",≥ 50,121 to 124
"COc1ccccc1NC(=O)Nc1ccc(N2CCN(C(=O)Nc3cc(OCCO)ccc3Cl)CC2)cc1 [Example 232, 4-{4-[3-(2-methoxy-phenyl)-ureido]-phenyl}-piperazine-1-carboxylic acid [2-chloro-5-(2-hydroxy-ethoxy)-phenyl]-amide]",≥ 50,179 to 180
"CCOc1cccc(NC(=O)Nc2ccc(N3CCN(C(=O)Nc4cc(OCCO)ccc4Cl)CC3)cc2)c1 [Example 233, 4-{4-[3-(3-ethoxy-phenyl)-ureido]-phenyl}-piperazine-1-carboxylic acid [2-chloro-5-(2-hydroxy-ethoxy)-phenyl]-amide]",≥ 50,196 to 197
"COc1cc(NC(=O)Nc2ccc(N3CCN(C(=O)Nc4cc(OCCO)ccc4Cl)CC3)cc2)cc(OC)c1 [Example 234, 4-{4-[3-(3,5-dimethoxy-phenyl)-ureido]-phenyl}-piperazine-1-carboxylic acid [2-chloro-5-(2-hydroxy-ethoxy)-phenyl]-amide]",≥ 50,191 to 192
"COc1ccccc1NC(=O)Nc1ccc(N2CCN(C(=O)Nc3cc(OCCO)ccc3Cl)CC2)nc1 [Example 235, 4-{5-[3-(2-methoxy-phenyl)-ureido]-pyridin-2-yl}-piperazine-1-carboxylic acid [2-chloro-5-(2-hydroxy-ethoxy)-phenyl]-amide]",≥ 50,139 to 141
"CCOc1cccc(NC(=O)Nc2ccc(N3CCN(C(=O)Nc4cc(OCCO)ccc4Cl)CC3)nc2)c1 [Example 236, 4-{5-[3-(3-ethoxy-phenyl)-ureido]-pyridin-2-yl}-piperazine-1-carboxylic acid [2-chloro-5-(2-hydroxy-ethoxy)-phenyl]-amide]",≥ 50,140 to 143
"Cc1nc(NC(=O)Nc2ccc(N3CCN(C(=O)Nc4cc(OCCO)ccc4Cl)CC3)nc2)sc1C [Example 237, 4-{5-(3-(4,5-dimethyl-thiazol-2-yl)-ureido)-pyridin-2-yl}-piperazine-1-carboxylic acid {2-chloro-5-(2-hydroxy-ethoxy)-phenyl}-amide]",≥ 50,128 to 129
"COc1ccc(C)cc1NC(=O)Nc1ccc(N2CCN(C(=O)Nc3cc(OCCO)ccc3Cl)CC2)nc1 [Example 238, 4-{5-[3-(2-methoxy-5-methyl-phenyl)-ureido]-pyridin-2-yl}-piperazine-1-carboxylic acid [2-chloro-5-(2-hydroxy-ethoxy)-phenyl]-amide]",≥ 50,132 to 134
"COc1ccc(C)cc1NC(=O)Nc1ccc(N2CCN(C(=O)Nc3ccc(OCCO)cc3C(F)(F)F)CC2)c(C)c1 [Example 239, 4-{4-[3-(2-methoxy-5-methyl-phenyl)-ureido]-2-methyl-phenyl}-piperazine-1-carboxylic acid [4-(2-hydroxy-ethoxy)-2-trifluoromethyl-phenyl]-amide]",≥ 50,225 to 228
"O=C(Nc1ccc(N2CCN(C(=O)Nc3ccc(OCCO)cc3C(F)(F)F)CC2)cc1)Nc1ccccc1OC(F)(F)F [Example 240, 4-{4-[3-(2-trifluoromethoxy-phenyl)-ureido]-phenyl}-piperazine-1-carboxylic acid [4-(2-hydroxy-ethoxy)-2-trifluoromethyl-phenyl]-amide]",≥ 50,112 to 114
"CSc1ccccc1NC(=O)Nc1ccc(N2CCN(C(=O)Nc3ccc(OCCO)cc3C(F)(F)F)CC2)cc1 [Example 241, 4-{4-[3-(2-methylsulfanyl-phenyl)-ureido]-phenyl}-piperazine-1-carboxylic acid [4-(2-hydroxy-ethoxy)-2-trifluoromethyl-phenyl]-amide]",≥ 50,115 to 116
"COc1ccc(C)cc1NC(=O)Nc1ccc(N2CCN(C(=O)Nc3ccc(OCCO)cc3C(F)(F)F)CC2)c(C#N)c1 [Example 242, 4-{2-cyano-4-[3-(2-methoxy-5-methyl-phenyl)-ureido]-phenyl}-piperazine-1-carboxylic acid [4-(2-hydroxy-ethoxy)-2-trifluoromethyl-phenyl]-amide]",≥ 50,135 to 137
"O=C(Nc1ccc(N2CCN(C(=O)Nc3ccc(OCCO)cc3C(F)(F)F)CC2)cc1)Nc1ccc2c(c1)CCO2 [Example 243, 4-{4-[3-(2,3-dihydro-benzofuran-5-yl)-ureido]-phenyl}-piperazine-1-carboxylic acid [4-(2-hydroxy-ethoxy)-2-trifluoromethyl-phenyl]-amide]",≥ 50,212 to 214
"O=C(Nc1ccc(N2CCN(C(=O)Nc3ccc(OCCO)cc3C(F)(F)F)CC2)cc1)Nc1cccc2c1OCCO2 [Example 244, 4-{4-[3-(2,3-dihydro-1,4-benzodioxin-5-yl)-ureido]-phenyl}-piperazine-1-carboxylic acid [4-(2-hydroxy-ethoxy)-2-trifluoromethyl-phenyl]-amide]",≥ 50,127 to 129
"O=C(Nc1ccc(N2CCN(C(=O)Nc3ccc(OCCO)cc3C(F)(F)F)CC2)cc1)Nc1ccccc1OC(F)F [Example 245, 4-{4-[3-(2-difluoromethoxy-phenyl)-ureido]-phenyl}-piperazine-1-carboxylic acid [4-(2-hydroxy-ethoxy)-2-trifluoromethyl-phenyl]-amide]",≥ 50,118 to 120
"CCc1csc(NC(=O)Nc2ccc(N3CCN(C(=O)Nc4ccc(OCCO)cc4C(F)(F)F)CC3)cc2)n1 [Example 246, 4-{4-[3-(4-ethyl-thiazol-2-yl)-ureido]-phenyl}-piperazine-1-carboxylic acid [4-(2-hydroxy-ethoxy)-2-trifluoromethyl-phenyl]-amide]",≥ 50,124 to 125
"COc1cccc(NC(=O)Nc2ccc(N3CCN(C(=O)Nc4ccc(OCCO)cc4C(F)(F)F)CC3)cc2)c1OC [Example 247, 4-{4-[3-(2,3-dimethoxy-phenyl)-ureido]-phenyl}-piperazine-1-carboxylic acid [4-(2-hydroxy-ethoxy)-2-trifluoromethyl-phenyl]-amide]",≥ 50,135 to 138
"COc1ccc(C)cc1NC(=O)Nc1ccc(N2CCN(C(=O)Nc3ccc(OCCO)cc3Cl)CC2)cc1 [Example 248, 4-{4-[3-(2-methoxy-5-methyl-phenyl)-ureido]-phenyl}-piperazine-1-carboxylic acid [2-chloro-4-(2-hydroxy-ethoxy)-phenyl]-amide]",≥ 50,152 to 154
"COc1cccc(NC(=O)Nc2ccc(N3CCN(C(=O)Nc4ccc(OCCO)cc4Cl)CC3)cc2)c1 [Example 249, 4-{4-[3-(3-methoxy-phenyl)-ureido]-phenyl}-piperazine-1-carboxylic acid [2-chloro-4-(2-hydroxy-ethoxy)-phenyl]-amide]",≥ 50,198 to 201
"COc1cc(NC(=O)Nc2ccc(N3CCN(C(=O)Nc4ccc(OCCO)cc4Cl)CC3)cc2)cc(OC)c1 [Example 250, 4-{4-[3-(3,5-dimethoxy-phenyl)-ureido]-phenyl}-piperazine-1-carboxylic acid [2-chloro-4-(2-hydroxy-ethoxy)-phenyl]-amide]",≥ 50,114 to 116
